The numbers were not newly measured in publication PMC2891520 (The Journal of neuroscience : the official journal of the …, 2010), which cites them from elsewhere.

The target in the data set is CaMKII (Homo sapiens, UniProt Q9UQM7). As to conditions: ref Vest et al., 2010.

Consider `COc1ccc(S(=O)(=O)N(CCO)c2ccccc2CN(C)C/C=C/c2ccc(Cl)cc2)cc1` [KN93], for which the “block of autonomous CaMKII activity once generated” value was “does not block autonomous activity once it is generated”.
